Experimental data: paper PMC4819177, “The rational search for selective anticancer derivatives of the peptide Trichogin GA IV: a multi-technique biophysical approach” (Scientific Reports, 2016)
“Also recorded” adds a separate entry of the source. Square brackets hold non-standard residues; d marks the D form. Peptide text beside a SMILES is read from it. * marks the point of attachment. TOAC = CC1(C)CC(N)(C(=O)O)CC(C)(C)N1[O]; Leu(ol) = CC(C)C[C@H](N)CO; Octanoyl = CCCCCCCC(=O)*; Api = NC1(C(=O)O)CCNCC1; Aib = CC(C)(N)C(=O)O

Legend:
[1] = test system: T67 human glioma cell line; assay type: cell-based; details: MTT, 24 h exposure; average error about ±2 μM
Protocol: (§1) We studied the effect of TG and its analogues on normal (HDF) and transformed (T67 and HeLa) cells. The cellular viability was assessed after 24 hours of exposure to the peptides by the MTT assay (Table 1).
(§2) Culture media, foetal bovine serum (FBS) and antibiotics were purchased from Carlo Erba Dasit Group. The T67 human glioma cell line was derived by Lauro et al.[49] from a World Health Organization (WHO) Grade III gemistocytic astrocytoma. Human dermal fibroblasts (HDF) were obtained by ATCC. HDF were cultured in Fibroblast Basal Medium (ATCC) supplemented with 10% FBS. T67 and HeLa cells were cultured in Dulbecco’s modified Eagle’s medium (MMedical) supplemented with 10% FBS, 100 UI/ml penicillin, 100 μg/ml streptomycin, and 40 μg/ml gentamycin, and kept in a 5% CO2 atmosphere at 37 °C, with saturating humidity. Cell viability and number were measured by trypan blue exclusion method.
(§3) Cytotoxicity of peptides was estimated using a MTT assay. All the chemicals used for this assay have been purchased by sigma Aldrich and used without further purification. T67, HeLa and HDF cells were seeded in 24-well plates at 1 × 10^5 cells/well. Experiments were performed after 24 h of incubation at 37 °C in 5% CO2. After this time cells were washed and treated for 24 h with different concentrations of peptides; the cells are then incubated for 60 mins with 300 μM of MTT in culture medium. The absorbance of each well was measured at 450 nm with a spectrofluorometer (Wallac Victor multilabel counter; Perkin-Elmer Inc., Boston, MA, USA). Data are reported as the mean ± standard deviation of at least three independent experiments.

[2] = test system: human dermal fibroblasts (HDF); assay type: cell-based; details: MTT, 24 h exposure; average error about ±2 μM
Protocol: as §1, §2, §3

HeLa cells [3] = assay type: cell-based, human; details: MTT, 24 h exposure; average error about ±2 μM
Protocol: as §1, §2, §3

T67, HeLa and HDF cells = experiment: MTT cytotoxicity assay, summary over the three cell lines; assay type: cell-based, human; details: 24 h
Protocol: as §1, §3

[4] = Dynamic light scattering of POPC SUV with peptides; assay type: physicochemical; details: POPC SUV 2 mM, P:L 1:100
Protocol: The dimension of the SUV prepared by sonication was verified by dynamic light scattering (DLS). Additionally we checked if the peptides at a P:L ratio 1:100, the ratio used for EPR experiments, alter the dimension of the SUV. The experiments were perfomed on POPC SUV (2 mM) with and without peptides. We chose a toxic peptide, [Arg^2] TG, and a non-toxic peptide, [Leu^4] TG. The average diameter of the SUV in this preparation is about 21±6 nm (when counting the size distribution by numer).

HeLa cells [5] = experiment: Fluorescence microscopy of FITC-labelled peptides; assay type: cell-based, human; details: 0.5 μM, 3 hours; for state of the cells / membrane lysis: bright field; for cellular localization of the fluorescent label: green fluorescence
Protocol: HeLa cells were treated for 3 hours with 0.5 μM of TG and [Lys^6] […] The cells treated with [FITC^11] […] Conversely, treatment with [Lys^6, FITC^11] […] It has been shown that some AMP act not on the plasma membrane, but on the mitochondria.
HeLa cells were washed with PBS (NaCl 137 mM, KCl 2.7 mM, Na2HPO4 10 mM, KH2PO4 1.8 mM, pH 7.4), detached with 0.05% trypsin–EDTA solution and centrifuged for 3 min at 300 × g. The pellet was resuspended in DMEM medium and cells were counted by using trypan blue exclusion method. Then, 5 × 10^3 cells were seeded on custom chambers[58] with glass bottom, in 100 μL of complete DMEM medium and incubated at 37 °C in a humidified atmosphere with 5% CO2. After 24 h, cells were washed with PBS and incubated for 3 hours with […] of [FITC^11] TG and [Lys^6, FITC^11] TG dissolved in DMEM. After this time, cells were carefully washed with PBS, then 50 μL of PBS supplemented with calcium and magnesium (NaCl 137 mM, KCl 2.7 mM, Na2HPO4 10 mM, KH2PO4 1.8 mM, CaCl2 1 mM, MgCl2 0.5 mM, pH 7.4) was added to each chamber. Finally, chambers were mounted on the microscope stage for analysis. Micrographs were acquired on a Zeiss Axiovert 200 inverted microscope equipped with XBO xenon 75 W short arc lamp and a Photometrics Coolsnap FX CCD camera (Roper Scientific) with Metafluor Imaging Software version 6.1r6 (Universal Imaging Inc.) at λexc = 500 nm, λem = 545 nm.
We performed fluorescence microscopy experiments with rhodamine, which selectively stains mitochondria, to exclude that TG analogs penetrate inside the mitochondria and are localized only on the plasmatic membrane. Rhodamine staining is shown in FigureS5.B in red. The merged images of the experiments on [FITC^11]

Compound	EC50 [1] [µM]	EC50 [2] [µM]	EC50 (HeLa cells [3]) [µM]	further results
CCCCCCCC(=O)NC(C)(C)C(=O)NCC(=O)N[C@@H](CC(C)C)C(=O)NC(C)(C)C(=O)NCC(=O)NCC(=O)N[C@@H](CC(C)C)C(=O)NC(C)(C)C(=O)NCC(=O)N[C@H](C(=O)N[C@H](CO)CC(C)C)[C@@H](C)CC [TG, 1-Oct-Aib-Gly-Leu-Aib-Gly-Gly-Leu-Aib-Gly-Ile-Lol, reference compound] (Octanoyl-[Aib]GL[Aib]GGL[Aib]GI[Leu(ol)])	2	4	8	
CCCCCCCC(=O)NC(C)(C)C(=O)NCC(=O)N[C@@H](CC(C)C)C(=O)NC(C)(C)C(=O)NCC(=O)NCC(=O)N[C@@H](CC(C)C)C(=O)NC1(C(=O)NCC(=O)N[C@H](C(=O)N[C@H](CO)CC(C)C)[C@@H](C)CC)CCNCC1 [[Api^8] TG, Oct-UGLUGGLZGI-Lol] (Octanoyl-[Aib]GL[Aib]GGL[Api]GI[Leu(ol)])		> 20	> 20	cytotoxicity / selectivity in words (T67, HeLa and HDF cells): selective cytotoxicity towards a cancer cell line
CCCCCCCC(=O)NC(C)(C)C(=O)N[C@@H](CCCNC(=N)N)C(=O)N[C@@H](CC(C)C)C(=O)NC(C)(C)C(=O)NCC(=O)NCC(=O)N[C@@H](CC(C)C)C(=O)NC(C)(C)C(=O)NCC(=O)N[C@H](C(=O)N[C@H](CO)CC(C)C)[C@@H](C)CC [[Arg^2] TG, Oct-URLUGGLUGI-Lol] (Octanoyl-[Aib]RL[Aib]GGL[Aib]GI[Leu(ol)])	8	8	4	DLS Distribution by Number Peak 1, diameter [4]: 24 nm; DLS Distribution by Number Peak 1, fraction [4]: 100%; DLS Distribution by Volume Peak 1, diameter [4]: 28 nm; DLS Distribution by Volume Peak 1, fraction [4]: 92%; DLS Distribution by Volume Peak 2, diameter [4]: 5430 nm; DLS Distribution by Volume Peak 2, fraction [4]: 3%; DLS Distribution by Volume Peak 3, diameter [4]: 135 nm; DLS Distribution by Volume Peak 3, fraction [4]: 5%; effect of peptide on the dimension of the vesicles [4]: does not alter the dimension of the vesicles in a significant way
CCCCCCCC(=O)NC(C)(C)C(=O)NCC(=O)N[C@@H](CC(C)C)C(=O)NC(C)(C)C(=O)NCC(=O)N[C@@H](CCCCN)C(=O)N[C@@H](CC(C)C)C(=O)NC(C)(C)C(=O)NCC(=O)N[C@H](C(=O)N[C@H](CO)CC(C)C)[C@@H](C)CC [[Lys^6] TG, Oct-UGLUGKLUGI-Lol]	4	2	2	
CCCCCCCC(=O)NC1(C(=O)N[C@@H](CCCNC(=N)N)C(=O)N[C@@H](CC(C)C)C(=O)NC(C)(C)C(=O)NCC(=O)NCC(=O)N[C@@H](CC(C)C)C(=O)NC(C)(C)C(=O)NCC(=O)N[C@H](C(=O)N[C@H](CO)CC(C)C)[C@@H](C)CC)CC(C)(C)N([O])C(C)(C)C1 [[TOAC^1, Arg^2] TG, Oct-XRLUGGLUGI-Lol] (Octanoyl-[TOAC]RL[Aib]GGL[Aib]GI[Leu(ol)])	8	15	9	
CCCCCCCC(=O)NC1(C(=O)NCC(=O)N[C@@H](CC(C)C)C(=O)NC(C)(C)C(=O)NCC(=O)NCC(=O)N[C@@H](CC(C)C)C(=O)NC(C)(C)C(=O)N[C@@H](CCCNC(=N)N)C(=O)N[C@H](C(=O)N[C@H](CO)CC(C)C)[C@@H](C)CC)CC(C)(C)N([O])C(C)(C)C1 [[TOAC^1, Arg^9] TG, Oct-XGLUGGLURI-Lol] (Octanoyl-[TOAC]GL[Aib]GGL[Aib]RI[Leu(ol)])	8	8	5	
CCCCCCCC(=O)NC1(C(=O)NCC(=O)N[C@@H](CC(C)C)C(=O)N[C@@H](CC(C)C)C(=O)NCC(=O)NCC(=O)N[C@@H](CC(C)C)C(=O)NC(C)(C)C(=O)NCC(=O)N[C@H](C(=O)N[C@H](CO)CC(C)C)[C@@H](C)CC)CC(C)(C)N([O])C(C)(C)C1 [[TOAC^1, Leu^4] TG, Oct-XGLLGGLUGI-Lol] (Octanoyl-[TOAC]GLLGGL[Aib]GI[Leu(ol)])				cytotoxicity / selectivity in words (T67, HeLa and HDF cells): no toxicity
CCCCCCCC(=O)NC1(C(=O)NCC(=O)N[C@@H](CC(C)C)C(=O)NC(C)(C)C(=O)N[C@@H](CCCCN)C(=O)N[C@@H](CCCCN)C(=O)N[C@@H](CC(C)C)C(=O)NC(C)(C)C(=O)NCC(=O)N[C@H](C(=O)N[C@H](CO)CC(C)C)[C@@H](C)CC)CC(C)(C)N([O])C(C)(C)C1 [[TOAC^1, Lys^5,6] TG, Oct-XGLUKKLUGI-Lol]	10	15	6	
CCCCCCCC(=O)NC1(C(=O)NCC(=O)N[C@@H](CC(C)C)C(=O)NC(C)(C)C(=O)NCC(=O)N[C@@H](CCCCN)C(=O)N[C@@H](CC(C)C)C(=O)NC(C)(C)C(=O)NCC(=O)N[C@H](C(=O)N[C@H](CO)CC(C)C)[C@@H](C)CC)CC(C)(C)N([O])C(C)(C)C1 [[TOAC^1, Lys^6] TG, Oct-XGLUGKLUGI-Lol]	1	5	3	cytotoxicity / selectivity in words (T67, HeLa and HDF cells): most toxic peptide on all the cell lines
Oct-UGLLGGLUGI-Lol [[Leu^4] TG]	> 20	> 20	> 20	DLS Distribution by Number Peak 1, diameter [4]: 20 nm; DLS Distribution by Number Peak 1, fraction [4]: 100%; DLS Distribution by Volume Peak 1, diameter [4]: 30 nm; DLS Distribution by Volume Peak 1, fraction [4]: 96%; DLS Distribution by Volume Peak 2, diameter [4]: 4993 nm; DLS Distribution by Volume Peak 2, fraction [4]: 4%; effect of peptide on the dimension of the vesicles [4]: does not alter the dimension of the vesicles in a significant way
Oct-UGLUGGLUGIL-FITC [[FITC^11] TG]				state of the cells / membrane lysis (HeLa cells [5]): keeps the cells intact; also recorded: largely intact; cellular localization of the fluorescent label (HeLa cells [5]): mainly located in the outer plasma membrane; colocalization with rhodamine (mitochondria) (HeLa cells [5]; rhodamine staining): no significant colocalization
Oct-UGLUGKLUGIL- FITC [[Lys^6, FITC^11] TG]				state of the cells / membrane lysis (HeLa cells [5]): severe membrane lysis; cellular localization of the fluorescent label (HeLa cells [5]): mainly located in the outer plasma membrane
Oct-XGLUGGLLGI-Lol [[TOAC^1, Leu^8] TG]	> 20	> 20	> 20	
